{"source": "ChEMBL document CHEMBL4342414", "about": "“Activity of 2,6,9-trisubstituted purines as potent PDGFRα kinase inhibitors with antileukaemic activity” (Eur J Med Chem, 2019)", "key": {"EOL1 [1]": {"test_system": "EOL1", "experiment": "Induction of apoptosis in human FIP1L1-PDGFRA positive EOL-1 cells assessed as increase in cell accumulation at subG1 phase at >=10 nM after 24 hrs by propidium iodide staining based flow cytometry relative to control", "assay_type": "functional"}, "EOL1 [2]": {"test_system": "EOL1", "experiment": "Induction of cell cycle arrest at G1 phase in human FIP1L1-PDGFRA positive EOL-1 cells at 10 nM after 24 hrs by propidium iodide staining based flow cytometry", "assay_type": "functional"}, "K562": {"test_system": "K562", "experiment": "Cytotoxicity against human K562 cells assessed as growth inhibition after 72 hrs by resazurin dye-based fluorescence analysis", "assay_type": "functional", "conditions": "K562, 72 h"}, "[3]": {"experiment": "Cytotoxicity against human BJ cells assessed as growth inhibition after 72 hrs by resazurin dye-based fluorescence analysis", "assay_type": "cell-based"}, "EOL1 [4]": {"test_system": "EOL1", "experiment": "Cytotoxicity against FIP1L1-PDGFRA positive human EOL-1 cells assessed as growth inhibition after 72 hrs by resazurin dye-based fluorescence analysis", "assay_type": "functional", "conditions": "EOL1, 72 h"}, "[5]": {"experiment": "Cytotoxicity against human CEM cells assessed as growth inhibition after 72 hrs by resazurin dye-based fluorescence analysis", "assay_type": "cell-based", "conditions": "CEM (CCRF-CEM) cells"}, "HCC827": {"test_system": "HCC827", "experiment": "Cytotoxicity against human HCC827 cells assessed as growth inhibition after 72 hrs by resazurin dye-based fluorescence analysis", "assay_type": "functional", "conditions": "HCC827, 72 h"}}, "note": "The source made the active and inactive calls. The calls are words filed in the database; no cut-off is given here."}
{"smiles": "N[C@H]1CC[C@H](Nc2nc(Nc3ccc(CN4CCOCC4)cc3)c3ncn(C4CCCC4)c3n2)CC1", "values": [{"measurement": "Activity", "setting": "EOL1 [1]", "value": "Active"}, {"measurement": "Activity", "setting": "EOL1 [2]", "value": "Active"}, {"measurement": "GI50", "setting": "K562", "value": 1120, "unit": "nM"}, {"measurement": "GI50 at 72 h", "setting": "[3]", "value": 12300, "unit": "nM"}, {"measurement": "GI50", "setting": "EOL1 [4]", "value": 7, "unit": "nM"}, {"measurement": "GI50 at 72 h", "setting": "[5]", "value": 820, "unit": "nM"}, {"measurement": "GI50", "setting": "HCC827", "value": 1010, "unit": "nM"}]}
